What all share (experiment): Method 1: intracellular Ca2+ release (FLIPR, Calcium 5) in recombinant CHO-K1 cells
Assay type in all cases: cell-based

One assay addresses T1, human S1PR1 receptor (Homo sapiens, UniProt P21453).
T1 construct: host or cells: CHO-K1
The settings on record: (1): determined with method 1; read-out: S1P1 EC50. Summed up:
(§1)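 For antagonist mode, compounds were pre-incubated 10 min before phospho-fingolimod at EC80; in agonist mode, compounds were added directly to Calcium 5-loaded CHO-K1 cells co-expressing Gq/i5. Fluorescence was measured on FLIPR, and EC50 was fitted relative to the phospho-fingolimod curve.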

The next assay deals with T2, human S1PR3 receptor (Homo sapiens, UniProt Q99500).
T2 construct: host or cells: CHO-K1
The settings on record: (1): determined with method 1; read-out: S1P3 EC50. The essentials:
as §1

The target of another assay is T3, human S1PR4 receptor (Homo sapiens, UniProt O95977).
T3 construct: host or cells: CHO-K1
T3 sequence (O95977 1-384): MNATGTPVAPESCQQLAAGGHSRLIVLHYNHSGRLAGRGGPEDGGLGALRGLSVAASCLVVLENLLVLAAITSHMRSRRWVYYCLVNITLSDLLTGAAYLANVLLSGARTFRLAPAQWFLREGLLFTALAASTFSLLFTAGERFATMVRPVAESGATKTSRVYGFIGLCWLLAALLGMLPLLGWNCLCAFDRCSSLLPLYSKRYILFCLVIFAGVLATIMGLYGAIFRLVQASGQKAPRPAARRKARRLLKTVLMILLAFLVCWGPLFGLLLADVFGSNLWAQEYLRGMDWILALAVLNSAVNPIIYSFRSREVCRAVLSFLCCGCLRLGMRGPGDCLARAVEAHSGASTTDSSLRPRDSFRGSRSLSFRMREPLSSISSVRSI
The settings on record: (1): determined with method 1; read-out: S1P4 EC50. The essentials:
as §1

The next assay concerns the target T4, human S1PR5 receptor (Homo sapiens, UniProt Q9H228).
T4 construct: host or cells: CHO-K1
The settings on record: agonist potency, determined with method 1 (symbols A-D); read-out: S1P5 EC50 range. The essentials: as §1

T1 sequence (P21453 whole entry): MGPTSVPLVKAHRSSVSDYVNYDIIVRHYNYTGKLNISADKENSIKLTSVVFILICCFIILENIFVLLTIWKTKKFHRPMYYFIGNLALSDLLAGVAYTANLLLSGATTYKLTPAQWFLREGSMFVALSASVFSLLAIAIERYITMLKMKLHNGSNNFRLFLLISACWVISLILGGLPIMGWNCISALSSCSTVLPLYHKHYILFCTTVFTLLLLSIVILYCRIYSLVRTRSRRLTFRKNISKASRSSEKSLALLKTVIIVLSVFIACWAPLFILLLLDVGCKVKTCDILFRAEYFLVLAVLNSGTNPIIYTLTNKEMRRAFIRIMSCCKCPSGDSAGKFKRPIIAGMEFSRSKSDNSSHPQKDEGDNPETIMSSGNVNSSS
T2 sequence (Q99500 whole entry): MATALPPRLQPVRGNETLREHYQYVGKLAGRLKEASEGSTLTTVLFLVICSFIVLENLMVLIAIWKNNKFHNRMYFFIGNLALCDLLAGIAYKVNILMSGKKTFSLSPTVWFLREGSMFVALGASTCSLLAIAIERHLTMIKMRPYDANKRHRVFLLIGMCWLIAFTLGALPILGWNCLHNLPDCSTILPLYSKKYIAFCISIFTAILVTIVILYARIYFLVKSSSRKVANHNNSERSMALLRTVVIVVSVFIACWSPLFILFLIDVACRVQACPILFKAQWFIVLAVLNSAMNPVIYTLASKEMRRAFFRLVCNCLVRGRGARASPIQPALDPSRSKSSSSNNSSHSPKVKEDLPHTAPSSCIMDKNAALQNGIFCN
T4 sequence (Q9H228 whole entry): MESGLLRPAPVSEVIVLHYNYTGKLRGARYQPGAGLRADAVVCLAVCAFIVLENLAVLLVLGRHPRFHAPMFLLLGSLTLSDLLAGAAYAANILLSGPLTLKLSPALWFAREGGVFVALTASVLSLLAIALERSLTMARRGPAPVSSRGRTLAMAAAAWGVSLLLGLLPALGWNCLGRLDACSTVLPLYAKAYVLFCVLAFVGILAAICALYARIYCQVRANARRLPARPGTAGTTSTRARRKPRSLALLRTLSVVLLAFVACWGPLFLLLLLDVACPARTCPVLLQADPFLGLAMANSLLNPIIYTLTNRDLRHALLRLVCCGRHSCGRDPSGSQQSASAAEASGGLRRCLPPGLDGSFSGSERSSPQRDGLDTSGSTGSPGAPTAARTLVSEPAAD

Turning to `CC(CC(=O)O)CN1CCc2nc(-c3ccc(OCc4ccc(Cl)cc4)cc3)ncc2C1` (racemic) [Compound 23, 4-(2-(4-((4-chlorobenzyl)oxy)phenyl)-7,8-dihydropyrido[4,3-d]pyrimidin-6(5H)-yl)-3-methylbutanoic acid], the EC50 at human S1PR1 receptor is over 1000 nM; at human S1PR3 receptor, over 1000 nM; at human S1PR4 receptor it was over 1000 nM; at human S1PR5 receptor, under 10 nM.
With `CC(CN1CCc2nc(-c3ccc(OCc4cc(Cl)cc(Cl)c4)cc3)ncc2C1)C(=O)O` (single isomer, unassigned) [Compound 19, 3-(2-(4-((3,5-dichlorobenzyl)oxy)phenyl)-7,8-dihydropyrido[4,3-d]pyrimidin-6(5H)-yl)-2-methylpropanoic acid], the EC50 on human S1PR1 receptor was over 1000 nM; at human S1PR3 receptor, over 1000 nM; at human S1PR4 receptor, over 1000 nM; at human S1PR5 receptor it was under 10 nM.
As to `CC(CN1CCc2nc(-c3ccc(OCc4cc(Cl)cc(Cl)c4)cc3)ncc2C1)C(=O)O` (single isomer, unassigned) [Compound 20, 3-(2-(4-((3,5-dichlorobenzyl)oxy)phenyl)-7,8-dihydropyrido[4,3-d]pyrimidin-6(5H)-yl)-2-methylpropanoic acid], the EC50 on human S1PR1 receptor was over 1000 nM; at human S1PR3 receptor it was over 1000 nM; at human S1PR4 receptor it was over 1000 nM; at human S1PR5 receptor it was 10 to 100 nM.
For `C[C@@H](CC(=O)O)CN1CCc2nc(-c3ccc(C(F)(F)Cc4ccc(Cl)cc4)cc3)ncc2C1` (single isomer, unassigned) [Compound 266, 4-(2-(4-(2-(4-chlorophenyl)-1,1-difluoroethyl)phenyl)-7,8-dihydropyrido[4,3-d]pyrimidin-6(5H)-yl)-3-methylbutanoic acid], the EC50 is over 1000 nM at human S1PR1 receptor, over 1000 nM at human S1PR3 receptor, over 1000 nM at human S1PR4 receptor and 10 to 100 nM at human S1PR5 receptor.
Consider `CC(CC(=O)O)CN1CCc2nc(-c3ccc(OCc4ccc(Cl)cc4)cc3)ncc2C1` (single isomer, unassigned; (+)) [Compound 212, (+)-4-(2-(4-((4-chlorobenzyl)oxy)phenyl)-7,8-dihydropyrido[4,3-d]pyrimidin-6(5H)-yl)-3-methylbutanoic acid], for which the EC50 at human S1PR1 receptor was over 1000 nM; at human S1PR3 receptor, over 1000 nM; on human S1PR4 receptor, over 1000 nM; on human S1PR5 receptor, under 10 nM.
For `O=C(O)C1(CN2CCc3nc(-c4ccc(OCc5cccc(Cl)c5)cc4)ncc3C2)CC1` [Compound 1, 1-((2-(4-((3-chlorobenzyl)oxy)phenyl)-7,8-dihydropyrido[4,3-d]pyrimidin-6(5H)-yl)methyl)cyclopropanecarboxylic acid], the EC50 on human S1PR1 receptor is over 1000 nM; on human S1PR3 receptor, over 1000 nM; on human S1PR4 receptor it was over 1000 nM; on human S1PR5 receptor it was 100 to 1000 nM.
Consider `O=C(O)CC1CC(N2CCc3nc(-c4ccc(OCc5ccc(Cl)cc5)cc4)ncc3C2)C1` (centres unmarked) [Compound 2, 2-(3-(2-(4-((4-chlorobenzyl)oxy)phenyl)-7,8-dihydropyrido[4,3-d]pyrimidin-6(5H)-yl)cyclobutyl)acetic acid], for which the EC50 on human S1PR1 receptor is over 1000 nM; on human S1PR3 receptor, over 1000 nM; at human S1PR4 receptor, over 1000 nM; on human S1PR5 receptor it was 100 to 1000 nM.
Regarding `O=C(O)CC1CC(N2CCc3nc(-c4ccc(OCc5cccc(Cl)c5)cc4)ncc3C2)C1` (centres unmarked) [Compound 3, 2-(3-(2-(4-((3-chlorobenzyl)oxy)phenyl)-7,8-dihydropyrido[4,3-d]pyrimidin-6(5H)-yl)cyclobutyl)acetic acid], the EC50 at human S1PR1 receptor is over 1000 nM; at human S1PR3 receptor, over 1000 nM; at human S1PR4 receptor it was over 1000 nM; at human S1PR5 receptor, 100 to 1000 nM.
As to `CC(CN1CCc2nc(-c3ccc(OCc4cccc(F)c4)cc3)ncc2C1)C(=O)O` (centres unmarked) [Compound 8, 3-(2-(4-((3-fluorobenzyl)oxy)phenyl)-7,8-dihydropyrido[4,3-d]pyrimidin-6(5H)-yl)-2-methylpropanoic acid], the EC50 on human S1PR1 receptor is over 1000 nM; at human S1PR3 receptor, over 1000 nM; at human S1PR4 receptor, over 1000 nM; on human S1PR5 receptor, under 10 nM.
In the case of `CC(CN1CCc2nc(-c3ccc(OCc4ccc(Cl)cc4)cc3)ncc2C1)C(=O)O` (centres unmarked) [Compound 12, 3-(2-(4-((4-chlorobenzyl)oxy)phenyl)-7,8-dihydropyrido[4,3-d]pyrimidin-6(5H)-yl)-2-methylpropanoic acid], the EC50 on human S1PR1 receptor is over 1000 nM; at human S1PR3 receptor, over 1000 nM; at human S1PR4 receptor, over 1000 nM; at human S1PR5 receptor, under 10 nM.
With `CC(CN1CCc2nc(-c3ccc(OCc4ccc(Cl)c(Cl)c4)cc3)ncc2C1)C(=O)O` (centres unmarked) [Compound 14, 3-(2-(4-((3,4-dichlorobenzyl)oxy)phenyl)-7,8-dihydropyrido[4,3-d]pyrimidin-6(5H)-yl)-2-methylpropanoic acid], the EC50 was over 1000 nM on human S1PR1 receptor, over 1000 nM at human S1PR3 receptor, over 1000 nM at human S1PR4 receptor and under 10 nM at human S1PR5 receptor.
In the case of `CC(CN1CCc2nc(-c3ccc(OCc4cc(Cl)cc(Cl)c4)cc3)ncc2C1)C(=O)O` (centres unmarked) [Compound 17, 3-(2-(4-((3,5-dichlorobenzyl)oxy)phenyl)-7,8-dihydropyrido[4,3-d]pyrimidin-6(5H)-yl)-2-methylpropanoic acid], the EC50 at human S1PR1 receptor was over 1000 nM; on human S1PR3 receptor it was over 1000 nM; at human S1PR4 receptor, over 1000 nM; on human S1PR5 receptor, under 10 nM.
In the case of `CCc1cccc(Cl)c1COc1ccc(-c2ncc3c(n2)CCN(CC(C)C(=O)O)C3)cc1` (centres unmarked) [Compound 18, 3-(2-(4-((2-chloro-6-ethylbenzyl)oxy)phenyl)-7,8-dihydropyrido[4,3-d]pyrimidin-6(5H)-yl)-2-methylpropanoic acid], the half-maximal effective concentration (EC50) at human S1PR1 receptor was over 1000 nM; at human S1PR3 receptor, over 1000 nM; at human S1PR4 receptor it was under 1000 nM; at human S1PR5 receptor it was 10 to 100 nM.
As to `CC(CC(=O)O)CN1CCc2nc(-c3ccc(OCc4cccc(Cl)c4)cc3)ncc2C1` (centres unmarked) [Compound 22, 4-(2-(4-((3-chlorobenzyl)oxy)phenyl)-7,8-dihydropyrido[4,3-d]pyrimidin-6(5H)-yl)-3-methylbutanoic acid], the EC50 on human S1PR1 receptor is over 1000 nM; at human S1PR3 receptor it was over 1000 nM; on human S1PR4 receptor, over 1000 nM; at human S1PR5 receptor it was under 10 nM.
Take `O=C(O)CN1CCc2nc(Cc3ccccc3)ncc2C1` [Compound 24, 2-(2-benzyl-7,8-dihydropyrido[4,3-d]pyrimidin-6(5H)-yl)acetic acid]: the EC50 at human S1PR1 receptor is over 1000 nM; on human S1PR3 receptor it was over 1000 nM; at human S1PR4 receptor, over 1000 nM; on human S1PR5 receptor, 1000 to 10000 nM.
Regarding `O=C(O)CN1CCc2nc(-c3ccc(OCc4ccc(Cl)c(Cl)c4)cc3)ncc2C1` [Compound 30, 2-(2-(4-((3,4-dichlorobenzyl)oxy)phenyl)-7,8-dihydropyrido[4,3-d]pyrimidin-6(5H)-yl)acetic acid], the 50% effective concentration (EC50) on human S1PR1 receptor is over 1000 nM; at human S1PR3 receptor, over 1000 nM; on human S1PR4 receptor, over 1000 nM; on human S1PR5 receptor, 10 to 100 nM.
Regarding `O=C(O)CN1CCc2nc(-c3ccc(OCc4cccc(Cl)c4)cc3)ncc2C1` [Compound 32, 2-(2-(4-((3-chlorobenzyl)oxy)phenyl)-7,8-dihydropyrido[4,3-d]pyrimidin-6(5H)-yl)acetic acid], the EC50 is over 1000 nM on human S1PR1 receptor, over 1000 nM at human S1PR3 receptor, over 1000 nM on human S1PR4 receptor and 100 to 1000 nM at human S1PR5 receptor.

(Values after US10556907B2 (AbbVie Inc., priority 2015, dated 2020).)
